The experiment deals with Stage IIIB or Stage IV Non-Small Cell Lung Cancer (NSCLC). The experiment is described as follows: Phase 2 clinical trial of Compound (1) (STA-4783, elesclomol) with paclitaxel and carboplatin vs paclitaxel and carboplatin; PFS and OS by baseline LDH. In kind it is in vivo, human. How it is done:
A Phase 2 Clinical Trial of Compound (1), or STA-4783 (elesclomol) in combination with paclitaxel and carboplatin for the treatment of chemotherapy naive patients with Stage IIIB or Stage IV Non-Small Cell Lung Cancer (NSCLC) was performed. It was a multicenter, randomized, double-blinded, 2-arm study evaluating the recommended Phase 2 dose of STA-4783 (elesclomol) and paclitaxel and AUC=6 mg·min/mL carboplatin as compared with the recommended Phase 2 dose of paclitaxel and AUC=6 mg·min/mL carboplatin.
Both progression-free survival (PFS) and overall survival (OS) were improved in the low baseline LDH (≦0.8 ULN) population (where ULN is Upper Limit of Normal, which in at least one laboratory was 234 units/L, significant deviation from which was low).
Table 1 presents PFS outcomes for ITT (Intent To Treat) population patients with high, normal and low baseline LDH levels. […] In patients with low baseline LDH levels, PFS was improved for treatment, with a median of 4.6 vs. 3.1 months (HR=0.88), where HR mean Hazard Ratio. In patients with normal baseline LDH, median PFS is similar for treatment and control arms (3.3 and 4.0 months, respectively), with a HR of 1.17. In patients with high baseline LDH, median PFS was 2.8 and 6.3 months for treatment and control arms, respectively (HR=[…])
Table 2 presents a summary of the OS analyses for the ITT population with high, normal and low baseline LDH levels. In patients with low baseline LDH levels, OS was improved for treatment, with a median of 10.7 vs. 8.5 months (HR=0.74). In patients with normal baseline LDH, median OS is similar for treatment and control arms (8.4 and 8.4 months, respectively), with a HR of 0.91. In patients with high baseline LDH, median […] was 5 and 10 months for treatment and control arms, respectively (HR=1.64)

[1] abbreviates: elevated LDH (>1 ULN) population.
The mark [2] stands for this setting: low baseline LDH (≦0.8 ULN) population.

Take `CN(NC(=O)CC(=O)NN(C)C(=S)c1ccccc1)C(=S)c1ccccc1` [Compound (1), elesclomol]: the “overall survival (OS), result in words” value by setting is: under setting [1], “negative impact”; under setting [2], “improved”. Moreover, the “progression-free survival (PFS), result in words” value by setting is: under setting [1], “negative impact”; under setting [2], “improved”.

The values are drawn from US20130149392A1, “METHOD OF TREATING NON-SMALL CELL LUNG CANCER WITH BIS-(THIOHYDRAZIDE)AMIDE COMPOUNDS” (SYNTA PHARMACEUTICALS CORP., priority 2011, published 2013).
